{"source": "patent US11192891B2", "about": "“Diazaspiro ROCK inhibitors” (BRISTOL-MYERS SQUIBB COMPANY, priority 2017, dated 2021)", "target": "ROCK2 (Homo sapiens, UniProt O75116)", "sequence (O75116 whole entry, species assumed)": "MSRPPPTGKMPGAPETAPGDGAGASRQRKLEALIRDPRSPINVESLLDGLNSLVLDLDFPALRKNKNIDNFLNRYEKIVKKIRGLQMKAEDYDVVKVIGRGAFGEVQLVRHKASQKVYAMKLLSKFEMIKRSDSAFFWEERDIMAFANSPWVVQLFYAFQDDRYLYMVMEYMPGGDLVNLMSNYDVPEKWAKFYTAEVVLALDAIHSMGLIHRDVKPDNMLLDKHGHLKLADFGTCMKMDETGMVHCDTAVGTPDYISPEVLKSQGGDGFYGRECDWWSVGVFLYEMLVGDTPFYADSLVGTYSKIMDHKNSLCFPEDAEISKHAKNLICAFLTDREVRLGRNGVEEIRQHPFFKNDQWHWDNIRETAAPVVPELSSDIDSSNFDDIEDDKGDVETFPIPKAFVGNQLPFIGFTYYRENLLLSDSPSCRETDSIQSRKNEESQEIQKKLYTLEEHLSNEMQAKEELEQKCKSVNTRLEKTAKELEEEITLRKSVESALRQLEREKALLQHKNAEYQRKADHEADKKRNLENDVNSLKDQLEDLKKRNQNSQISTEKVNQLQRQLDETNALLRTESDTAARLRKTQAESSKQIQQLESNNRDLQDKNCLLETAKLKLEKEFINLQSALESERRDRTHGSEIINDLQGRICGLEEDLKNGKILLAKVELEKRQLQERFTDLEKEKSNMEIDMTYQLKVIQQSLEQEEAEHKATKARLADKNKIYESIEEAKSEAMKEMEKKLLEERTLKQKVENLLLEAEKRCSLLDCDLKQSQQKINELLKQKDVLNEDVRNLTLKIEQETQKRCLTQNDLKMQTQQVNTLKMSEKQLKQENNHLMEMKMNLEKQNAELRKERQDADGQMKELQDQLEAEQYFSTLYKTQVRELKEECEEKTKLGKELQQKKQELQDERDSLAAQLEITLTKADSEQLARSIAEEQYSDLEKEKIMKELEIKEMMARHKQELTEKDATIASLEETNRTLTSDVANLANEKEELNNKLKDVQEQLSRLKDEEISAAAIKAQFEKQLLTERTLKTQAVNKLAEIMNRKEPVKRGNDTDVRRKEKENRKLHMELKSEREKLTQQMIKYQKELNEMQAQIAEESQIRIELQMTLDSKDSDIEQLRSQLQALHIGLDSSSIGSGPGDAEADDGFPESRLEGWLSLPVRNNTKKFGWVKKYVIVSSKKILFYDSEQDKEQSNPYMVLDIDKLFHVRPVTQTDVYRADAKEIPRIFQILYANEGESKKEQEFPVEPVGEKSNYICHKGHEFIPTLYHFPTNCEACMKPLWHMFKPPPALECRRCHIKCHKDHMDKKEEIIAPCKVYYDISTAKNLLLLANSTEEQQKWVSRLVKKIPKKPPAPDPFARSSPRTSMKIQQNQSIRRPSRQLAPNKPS", "assay": "ROCK kinase inhibition assay, FITC peptide substrate, LABCHIP 3000 readout", "format": "biochemical", "settings": "5 μM ATP, 1.5 μM peptide substrate", "outline": "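Rho kinase variants started the reaction with compound present (DMSO <2%); after incubation, EDTA stop, and phosphorylated and non-phosphorylated peptide separated by microfluidic electrophoresis. Dose-response format, inhibition calculated at each concentration.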", "note": "pIC50: −log10 of the molar value."}
{"smiles": "COc1cc(N2CCC3(CCN(S(=O)(=O)c4ccc5[nH]c(=O)[nH]c(=O)c5c4)CC3)C2=O)ccc1-c1cn[nH]c1", "note": "[Example 209, 6-({2-[3-methoxy-4-(1H-pyrazol-4-yl)phenyl]-1-oxo-2,8-diazaspiro[4.5]decan-8-yl}sulfonyl)-1,2,3,4-tetrahydroquinazoline-2,4-dione]", "values": [{"measurement": "pIC50", "result": 6.39}]}
{"smiles": "COc1cc(N2CCC3(CCN(S(=O)(=O)c4ccc5c(c4)C(=O)NC5=O)CC3)C2=O)ccc1-c1cn[nH]c1", "note": "[Example 210, 5-({2-[3-methoxy-4-(1H-pyrazol-4-yl)phenyl]-1-oxo-2,8-diazaspiro[4.5]decan-8-yl}sulfonyl)-2,3-dihydro-1H-isoindole-1,3-dione]", "values": [{"measurement": "pIC50", "result": 5.64}]}
{"smiles": "COc1cc(N2CCC3(CCN(S(=O)(=O)c4ccc5ncsc5c4)CC3)C2=O)ccc1-c1cn[nH]c1", "note": "[Example 211, 8-(1,3-benzothiazole-6-sulfonyl)-2-[3-methoxy-4-(1H-pyrazol-4-yl)phenyl]-2,8-diazaspiro[4.5]decan-1-one]", "values": [{"measurement": "pIC50", "result": 7.34}]}
{"smiles": "COc1ccc(S(=O)(=O)N2CCC3(CCN(c4ccc(-c5cn[nH]c5)c(OC)c4)C3=O)CC2)cc1F", "note": "[Example 212, 8-(3-fluoro-4-methoxybenzenesulfonyl)-2-[3-methoxy-4-(1H-pyrazol-4-yl)phenyl]-2,8-diazaspiro[4.5]decan-1-one]", "values": [{"measurement": "pIC50", "result": 6.55}]}
{"smiles": "COc1cc(N2CCC3(CCN(S(=O)(=O)c4ccc(S(N)(=O)=O)cc4)CC3)C2=O)ccc1-c1cn[nH]c1", "note": "[Example 213, 4-({2-[3-methoxy-4-(1H-pyrazol-4-yl)phenyl]-1-oxo-2,8-diazaspiro[4.5]decan-8-yl}sulfonyl)benzene-1-sulfonamide]", "values": [{"measurement": "pIC50", "result": 6.34}]}
{"smiles": "COc1cc(N2CCC3(CCN(C(=O)Nc4cccnc4)CC3)C2=O)ccc1-c1cn[nH]c1", "note": "[Example 214, 2-[3-methoxy-4-(1H-pyrazol-4-yl)phenyl]-1-oxo-N-(pyridin-3-yl)-2,8-diazaspiro[4.5]decane-8-carboxamide]", "values": [{"measurement": "pIC50", "result": 5.83}]}
{"smiles": "COc1cc(N2CCC3(CCN(C(=O)Nc4ccc(N(C)C)cc4)CC3)C2=O)ccc1-c1cn[nH]c1", "note": "[Example 215, N-[4-(dimethylamino)phenyl]-2-[3-methoxy-4-(1H-pyrazol-4-yl)phenyl]-1-oxo-2,8-diazaspiro[4.5]decane-8-carboxamide]", "values": [{"measurement": "pIC50", "result": 6.10}]}
{"smiles": "COc1cccc(NC(=O)N2CCC3(CC2)CCN(c2ccc(-c4cn[nH]c4)c(OC)c2)C3=O)c1", "note": "[Example 216, 2-[3-methoxy-4-(1H-pyrazol-4-yl)phenyl]-N-(3-methoxyphenyl)-1-oxo-2,8-diazaspiro[4.5]decane-8-carboxamide]", "values": [{"measurement": "pIC50", "result": 5.65}]}
{"smiles": "COc1ccc(NC(=O)N2CCC3(CC2)CCN(c2ccc(-c4cn[nH]c4)c(OC)c2)C3=O)cc1", "note": "[Example 217, 2-[3-methoxy-4-(1H-pyrazol-4-yl)phenyl]-N-(4-methoxyphenyl)-1-oxo-2,8-diazaspiro[4.5]decane-8-carboxamide]", "values": [{"measurement": "pIC50", "result": 5.61}]}
{"smiles": "COc1cc(N2CCC3(CCN(S(=O)(=O)c4ccc(S(C)(=O)=O)cc4)CC3)C2=O)ccc1-c1cn[nH]c1", "note": "[Example 218, 8-(4-methanesulfonylbenzenesulfonyl)-2-[3-methoxy-4-(1H-pyrazol-4-yl)phenyl]-2,8-diazaspiro[4.5]decan-1-one]", "values": [{"measurement": "pIC50", "result": 6.07}]}
{"smiles": "COc1cc(N2CCC3(CCN(C(=O)c4ccc(N5CCN(Cc6cnc7ccccc7n6)CC5)cc4)CC3)C2=O)ccc1-c1cn[nH]c1", "note": "[Example 219, 2-[3-methoxy-4-(1H-pyrazol-4-yl)phenyl]-8-(4-{4-[(quinoxalin-2-yl)methyl]piperazin-1-yl}benzoyl)-2,8-diazaspiro[4.5]decan-1-one]", "values": [{"measurement": "pIC50", "result": 8.72}]}
{"smiles": "COc1cc(N2CCC3(CCN(C(=O)c4ccc(N5CCN(Cc6ccc(-n7ccnc7)cc6)CC5)cc4)CC3)C2=O)ccc1-c1cn[nH]c1", "note": "[Example 220, 8-[4-(4-{[4-(1H-imidazol-1-yl)phenyl]methyl}piperazin-1-yl)benzoyl]-2-[3-methoxy-4-(1H-pyrazol-4-yl)phenyl]-2,8-diazaspiro[4.5]decan-1-one]", "values": [{"measurement": "pIC50", "result": 9.52}]}
{"smiles": "COc1cc(N2CCC3(CCN(C(=O)c4ccc(N5CCN(CCOCc6ccccc6)CC5)cc4)CC3)C2=O)ccc1-c1cn[nH]c1", "note": "[Example 221, 8-(4-{4-[2-(benzyloxy)ethyl]piperazin-1-yl}benzoyl)-2-[3-methoxy-4-(1H-pyrazol-4-yl)phenyl]-2,8-diazaspiro[4.5]decan-1-one]", "values": [{"measurement": "pIC50", "result": 9.40}]}
{"smiles": "COc1cc(N2CCC3(CCN(C(=O)c4ccc(N5CCN(CC(c6ccccc6)c6ccccc6)CC5)cc4)CC3)C2=O)ccc1-c1cn[nH]c1", "note": "[Example 222, 8-{4-[4-(2,2-diphenylethyl)piperazin-1-yl]benzoyl}-2-[3-methoxy-4-(1H-pyrazol-4-yl)phenyl]-2,8-diazaspiro[4.5]decan-1-one]", "values": [{"measurement": "pIC50", "result": 8.03}]}
{"smiles": "COc1cc(N2CCC3(CCN(C(=O)c4ccc(N5CCN(Cc6ccccc6Cl)CC5)cc4)CC3)C2=O)ccc1-c1cn[nH]c1", "note": "[Example 223, 8-(4-{4-[(2-chlorophenyl)methyl]piperazin-1-yl}benzoyl)-2-[3-methoxy-4-(1H-pyrazol-4-yl)phenyl]-2,8-diazaspiro[4.5]decan-1-one]", "values": [{"measurement": "pIC50", "result": 8.96}]}
{"smiles": "COc1cc(N2CCC3(CCN(C(=O)c4ccc(N5CCN(Cc6csnn6)CC5)cc4)CC3)C2=O)ccc1-c1cn[nH]c1", "note": "[Example 224, 2-[3-methoxy-4-(1H-pyrazol-4-yl)phenyl]-8-(4-{4-[(1,2,3-thiadiazol-4-yl)methyl]piperazin-1-yl}benzoyl)-2,8-diazaspiro[4.5]decan-1-one]", "values": [{"measurement": "pIC50", "result": 8.82}]}
{"smiles": "COc1cc(N2CCC3(CCN(C(=O)c4ccc(N5CCN(Cc6ccc(-c7ccccc7)cc6)CC5)cc4)CC3)C2=O)ccc1-c1cn[nH]c1", "note": "[Example 225, 8-{4-[4-({[1,1′-biphenyl]-4-yl}methyl)piperazin-1-yl]benzoyl}-2-[3-methoxy-4-(1H-pyrazol-4-yl)phenyl]-2,8-diazaspiro[4.5]decan-1-one]", "values": [{"measurement": "pIC50", "result": 8.35}]}
{"smiles": "COc1cc(N2CCC3(CCN(C(=O)c4ccc(N5CCN(C6CCCCC6)CC5)cc4)CC3)C2=O)ccc1-c1cn[nH]c1", "note": "[Example 226, 8-[4-(4-cyclohexylpiperazin-1-yl)benzoyl]-2-[3-methoxy-4-(1H-pyrazol-4-yl)phenyl]-2,8-diazaspiro[4.5]decan-1-one]", "values": [{"measurement": "pIC50", "result": 9.15}]}
{"smiles": "COc1cc(N2CCC3(CCN(C(=O)c4ccc(N5CCN(Cc6ccc(Cl)cc6)CC5)cc4)CC3)C2=O)ccc1-c1cn[nH]c1", "note": "[Example 227, 8-(4-{4-[(4-chlorophenyl)methyl]piperazin-1-yl}benzoyl)-2-[3-methoxy-4-(1H-pyrazol-4-yl)phenyl]-2,8-diazaspiro[4.5]decan-1-one]", "values": [{"measurement": "pIC50", "result": 8.66}]}
{"smiles": "COc1cc(N2CCC3(CCN(C(=O)c4ccc(N5CCN(Cc6cccn6C)CC5)cc4)CC3)C2=O)ccc1-c1cn[nH]c1", "note": "[Example 228, 2-[3-methoxy-4-(1H-pyrazol-4-yl)phenyl]-8-(4-{4-[(1-methyl-1H-pyrrol-2-yl)methyl]piperazin-1-yl}benzoyl)-2,8-diazaspiro[4.5]decan-1-one]", "values": [{"measurement": "pIC50", "result": 9.05}]}
{"smiles": "COc1cc(N2CCC3(CCN(C(=O)c4ccc(N5CCN(Cc6nc7ccccc7s6)CC5)cc4)CC3)C2=O)ccc1-c1cn[nH]c1", "note": "[Example 229, 8-(4-{4-[(1,3-benzothiazol-2-yl)methyl]piperazin-1-yl}benzoyl)-2-[3-methoxy-4-(1H-pyrazol-4-yl)phenyl]-2,8-diazaspiro[4.5]decan-1-one]", "values": [{"measurement": "pIC50", "result": 8.72}]}
{"smiles": "COc1cc(N2CCC3(CCN(C(=O)c4ccc(N5CCN(CC6CCCC6)CC5)cc4)CC3)C2=O)ccc1-c1cn[nH]c1", "note": "[Example 230, 8-{4-[4-(cyclopentylmethyl)piperazin-1-yl]benzoyl}-2-[3-methoxy-4-(1H-pyrazol-4-yl)phenyl]-2,8-diazaspiro[4.5]decan-1-one]", "values": [{"measurement": "pIC50", "result": 8.66}]}
{"smiles": "COc1cc(N2CCC3(CCN(C(=O)c4ccc(N5CCN(CCC(C)(C)C)CC5)cc4)CC3)C2=O)ccc1-c1cn[nH]c1", "note": "[Example 231, 8-{4-[4-(3,3-dimethylbutyl)piperazin-1-yl]benzoyl}-2-[3-methoxy-4-(1H-pyrazol-4-yl)phenyl]-2,8-diazaspiro[4.5]decan-1-one]", "values": [{"measurement": "pIC50", "result": 8.66}]}
{"smiles": "COc1cc(N2CCC3(CCN(C(=O)c4ccc(N5CCN(C(C)CN(C)C)CC5)cc4)CC3)C2=O)ccc1-c1cn[nH]c1", "note": "(centres unmarked) [Example 232, 8-(4-{4-[1-(dimethylamino)propan-2-yl]piperazin-1-yl}benzoyl)-2-[3-methoxy-4-(1H-pyrazol-4-yl)phenyl]-2,8-diazaspiro[4.5]decan-1-one]", "values": [{"measurement": "pIC50", "result": 8.51}]}
{"smiles": "COc1cc(N2CCC3(CCN(C(=O)c4ccc(N5CCN(C(C)C)CC5)cc4)CC3)C2=O)ccc1-c1cn[nH]c1", "note": "[Example 233, 2-[3-methoxy-4-(1H-pyrazol-4-yl)phenyl]-8-{4-[4-(propan-2-yl)piperazin-1-yl]benzoyl}-2,8-diazaspiro[4.5]decan-1-one]", "values": [{"measurement": "pIC50", "result": 9.70}]}
{"smiles": "COc1cc(N2CCC3(CCN(C(=O)c4ccc(N5CCN(Cc6ccc(C(F)(F)F)cc6)CC5)cc4)CC3)C2=O)ccc1-c1cn[nH]c1", "note": "[Example 234, 2-[3-methoxy-4-(1H-pyrazol-4-yl)phenyl]-8-[4-(4-{[4-(trifluoromethyl)phenyl]methyl}piperazin-1-yl)benzoyl]-2,8-diazaspiro[4.5]decan-1-one]", "values": [{"measurement": "pIC50", "result": 8.39}]}
{"smiles": "COc1cc(N2CCC3(CCN(C(=O)c4ccc(N5CCN(Cc6cccc(NS(C)(=O)=O)c6)CC5)cc4)CC3)C2=O)ccc1-c1cn[nH]c1", "note": "[Example 235, N-(3-{[4-(4-{2-[3-methoxy-4-(1H-pyrazol-4-yl)phenyl]-1-oxo-2,8-diazaspiro[4.5]decane-8-carbonyl}phenyl)piperazin-1-yl]methyl}phenyl)methanesulfonamide]", "values": [{"measurement": "pIC50", "result": 9.70}]}
{"smiles": "COc1cc(N2CCC3(CCN(C(=O)c4ccc(N5CCN(Cc6nccs6)CC5)cc4)CC3)C2=O)ccc1-c1cn[nH]c1", "note": "[Example 236, 2-[3-methoxy-4-(1H-pyrazol-4-yl)phenyl]-8-(4-{4-[(1,3-thiazol-2-yl)methyl]piperazin-1-yl}benzoyl)-2,8-diazaspiro[4.5]decan-1-one]", "values": [{"measurement": "pIC50", "result": 8.57}]}
{"smiles": "COc1cc(N2CCC3(CCN(C(=O)c4ccc(N5CCN(Cc6ccc(OCCCN(C)C)cc6)CC5)cc4)CC3)C2=O)ccc1-c1cn[nH]c1", "note": "[Example 237, 8-{4-[4-({4-[3-(dimethylamino)propoxy]phenyl}methyl)piperazin-1-yl]benzoyl}-2-[3-methoxy-4-(1H-pyrazol-4-yl)phenyl]-2,8-diazaspiro[4.5]decan-1-one]", "values": [{"measurement": "pIC50", "result": 10.00}]}
